# Reference: patent US9486502B2, “Methods of administering interferon gamma to absorb fluid from the subretinal space” (The United States of America, as represented by the …, priority 2008, dated 2016)
# B1: interferon gamma-1b: biologic response modifier, single chain polypeptide containing 140 amino acids (Actimmune®) (protein, UniProt P01579 24-161, looked up)
# Interferon gamma: QDPYVKEAENLKKYFNAGHSDVADNGTLFLGILKNWKEESDRKIMQSQIVSFYFKLFKNFKDDQSIQKSVETIKEDMNVKFFNSNKKKRDDFEKLTNYSVTDLNVQRKAIHELIQVMAELSPAAKTGKRKRSQMLFRG
# modifications: interferon gamma-1b
# Legend:
# hfRPE cells [1] = assay: BrdU incorporation assay, hfRPE proliferation; format: cell-based, human; conditions: for effect on the IFNγ effect on hfRPE proliferation: added one hour prior to IFNγ; for effect on hfRPE proliferation (BrdU incorporation): 0.5-80 ng/ml
# Procedure: BrdU incorporation was performed as described in Li, R. et al., 2007, Invest Ophthalmol Vis Sci, 48, 5722-5732, incorporated by reference in its entirety herein. IFNγ, TNFα, and IL-1β were obtained from Peprotech, Rocky Hill, N.J., and Universal Type I Interferon (cat: 11200-1) or human interferon beta la were from PBL biomedical laboratories (New Brunswick, N.J.). Cumulative effects were measured by adding VEGF165, EGF and bFGF (Peprotech), and PDGF-BB (R & D Systems) with IFNγ. Anti-human IFNγ R1 blocking antibody (R & D Systems, Minneapolis, Minn.), JAK inhibitor I, AG490, or JAK3 inhibitor II (EMD Biosciences, Gibbstown, N.J.) was added to the cells one hour prior to the addition of IFNγ. SFM was used as the negative control and SFM supplemented with 5% serum was used as positive control. After treatment for 48 hours, RPE cells were incubated with BrdU for 24 hours. The proliferation rate was evaluated using a Cell proliferation ELISA BrdU Kit (Roche, Ind.). Quadruplicate wells were used for each condition and the experiments were repeated at least two times using cell cultures from different donors. Cell viability was evaluated using a Live/Dead Viability/Cytotoxicity Kit (Invitrogen).
# hfRPE monolayers = assay: fluid transport (JV, TEP, RT) across hfRPE monolayers in modified Üssing chamber; format: cell-based, human; conditions: for effect on the effects of IFNγ on JV: Rp-8-Br-cAMPS 2 μM pretreatment
# Excerpt: Confluent monolayers of hfRPE cultured on transwells were mounted in a modified Üssing chamber and transepithelial water flow measurements (JV) were made with a capacitance probe technique as described previously in Maminishkis, A., et al., Invest Ophthalmol Vis Sci, 2006, 47, 3612-3624; Shi, G., et al., Invest Ophthalmol Vis Sci, 2008, 49, 4620-4630; Edelman, J. L., et al., Invest Ophthalmol Vis Sci, 1991, 32, 3033-3040; Jiang, C., et al., Science, 1993, 262, 424-427; and Maminishkis, A., et al., Invest Ophthalmol Vis Sci, 2002, 43, 3555-3566, each incorporated herein by reference in its entirety.
# Tissue viability was ascertained by recording transepithelial potential (TEP) and total tissue resistance (RT). It should be noted that the solution composition changes in this chamber were relatively slow (≈1-2 chamber volumes per minute) and the data sampling rate was once per minute, more than two orders of magnitude slower than the sampling rate in the electrophysiology chamber (see below). Therefore it was not possible to record fast changes, in seconds or minutes, in JV, TEP, or RT. After addition of IFNγ to the apical or basal baths, steady-state JV, TEP, and RT were recorded for 20-30 minutes. In control experiments, successive additions of IFNγ were made to test for the repeatability and reversibility of responses. To block IFNγ effects, RPE cells were incubated for 30-60 minutes with a blocking antibody against IFNγ R1, JAK inhibitor I, PKA inhibitors (H-89, EMD Biosciences; RP-8-Br-cAMPS, Sigma-Aldrich), nitric oxide synthase inhibitor (aminoguanidine hydrochloride, Sigma-Aldrich), P38 MAPK inhibitors (SB203580 or SB20290), or CHX. Other components of this signaling pathway were studied using P38 MAPK inhibitors (SB203580 and SB202190). Relatively specific Cl channel inhibitors, CFTRinh-172 or DIDS (EMD Biosciences, La Jolla, Calif.), were used to block cAMP or Ca^2+-activated Cl channels; experiments with CFTRinh-172 were performed as described in Muanprasat, C., et al., J Gen Physiol, 2004, 124, 125-137, incorporated herein by reference in its entirety. In chronic experiments, paired hfRPE tissues with matched RT values were incubated for 4-24 hours with IFNγ or CHX. The subsequent changes in JV, RT, and TEP were measured in Ringer's solution or serum free cell culture media as previously described in Shi, G., et al., Invest Ophthalmol Vis Sci, 2008 and Maminishkis, A., et al., Invest Ophthalmol Vis Sci, 2006, 47, 3612-3624, each incorporated herein by reference in its entirety. Intracellular levels of NO were elevated with 1-Hydroxy-2-oxo-3-(3-aminopropyl)-3-isopropyl-1-triazene (NOC-5, Enzo Life Sciences, Plymouth, Pa.). 8-Br-cGMP was purchased from Sigma-Aldrich.
# rat RPE = assay: in vivo retinal re-attachment assay (OCT)
# Procedure: All animal experiments were conducted in compliance with the ARVO Statement for the use of Animals in Ophthalmic and Vision Research, and the protocol was approved by the Animal Care and Use Committee of the National Institutes of Health. The procedures have been described in detail in Maminishkis, A., et al., Invest Ophthalmol Vis Sci, 2006, 47, 3612-3624, incorporated by reference in its entirety herein. Briefly, retinal detachments were created in long-Evans rats by injecting 0.5 to 3 μl of modified phosphate-buffered saline (MPBS) Ringer's solution into the sub-retinal space (SRS), which separates the photoreceptor outer segments and the apical membrane of the RPE. In the control portion of each experiment (at 0-70 minutes after creation of the retinal detachment), the rate of change of bleb volume was measured. The control period of “constant” volume was defined by JV≦2 μl hr cm over at least 40 minutes. Any control injections that exceeded this threshold rate were rejected from subsequent analysis.
# IFNγ was dissolved in MPBS, mixed with Celluvisc® solution (1:1) and applied as eye-drops (0.4 mL). Optical coherence tomography (OCT) imaging (Institute of Applied Physics, Russian Academy of Science, Nizhniy Novgorod, Russia) was used to measure the time course of the detachment volume change.
# A previously tested in vivo rodent model of retinal detachment was used to measure the effect of IFNγ on re-absorption following retinal detachment, as described in Example 11 and in Maminishkis, A., et al., Invest Ophthalmol Vis Sci, 2002, 43, 3555-3566, incorporated herein by reference in its entirety. Initial detachment was created by injecting approximately 1 μl of osmotically-balanced, modified phosphate-buffered saline (MPBS) Ringer's solution into the extracellular space, i.e. the sub-retinal space (SRS). After stabilization of the detachment, IFNγ (40 μl of 100 ng/ml) was added to the anterior surface of the eye via eye drops (Celluvisc®). A series of 3D OCT images were recorded at different time points.
# [2] = multiple instillations per day for months; literature; cited from earlier work
# hfCHC cells = assay: BrdU incorporation assay, human fetal choroidal cell proliferation; format: cell-based
# hfRPE cells [3] = assay: wound healing assay, hfRPE migration; format: cell-based, human; conditions: 48 hours, proliferation suppressed with mitomycin C
# Procedure: The wound healing assay was used to study the effects of inflammatory cytokines on hfRPE cell migration, as described previously in Li, R., et al. Invest Ophthalmol Vis Sci, 2007, 48, 5722-5732, incorporated herein by reference in its entirety. Cell proliferation was suppressed by incubation with 10 μg/ml mitomycin C (Sigma) for 2 hours before all migration experiments. A circular denuded area (7 mm in diameter) was made in each well using a custom designed cell scraper. After incubation with various inflammatory cytokines for 48 hours, cells were fixed with cold methanol and stained with ethidium homodimer-1 (EthD-1, Invitrogen) according to the manufacturer's instructions. Cell migration was quantified by counting the average number of cells that migrated into the denuded area in 16 microscope fields surrounding the circumference of the denuded area. Each condition was tested in triplicate and repeated using cells from different donors.
# [4] = Phase I study of topical interferon gamma-1b in CME secondary to uveitis (OCT macular thickness); format: in vivo, human; conditions: patients with CME secondary to uveitis, topical instillation(s), OCT post-instillation
# Excerpt: To test whether cystoid macular edema (CME), secondary to uveitis, is caused by the disequilibrium of the Jak/Stat and mTor signal transduction pathways in the retinal pigment epithelium (RPE), interferon gamma-1β topically applied in human patients. Five participants with CME secondary to uveitis receive a topical ocular instillation of interferon gamma-1b in a Phase I, non-randomized, prospective, uncontrolled, dose-escalation, single-center study. The study involves a one-time instillation or series of instillations of interferon gamma-1b on the cornea and measurement of a response with optical coherence tomography (OCT) over a three hour period.
# A 25% decrease in macular thickness is observed at a post-instillation as compared to baseline. In the study, the first two participants receive one instillation (each instillation contains […] in 0.05 mL solution) on the cornea at time zero, the next two participants receive two instillations, 10 minutes apart, for a total dosage of 20 μg, and the final participant receives three instillations, 10 minutes apart, for a total of 30 μg. OCT will be obtained at −60 minutes, −30 minutes and just before the instillation(s). […]
# Participants with CME secondary to uveitis are treated with ocular instillation(s) of interferon gamma-1b. […] The effect on the retinal thickness is measured using OCT measurements as indicated below. […]
molecule,measurement,setting,value
"N#C/C(=C\c1ccc(O)c(O)c1)C(=O)NCc1ccccc1 [AG490, reference compound]",effect on the IFNγ effect on hfRPE proliferation,hfRPE cells [1],block
"COc1cc2ncnc(Nc3ccc(O)c(Br)c3)c2cc1OC [JAK3, reference compound]",effect on the IFNγ effect on hfRPE proliferation,hfRPE cells [1],not
Nc1ncnc2c1nc(Br)n2C1OC2COP(O)(=S)OC2C1O (stereo not drawn) [Rp-8-Br-cAMPS],effect on the effects of IFNγ on JV,hfRPE monolayers,completely blocked
same,effect on the effects of IFNγ on JV,hfRPE monolayers; listed as Rp-8-Br-cAMPs,blocked
same,effect on baseline JV,"hfRPE monolayers; Rp-8-Br-cAMPS 2 μM, approximately 40 minutes",no effect
same,JV after Rp-8-Br-cAMPS,"hfRPE monolayers; six experiments, steady-state baseline 8.9±1.2",10.4±2.0 μl·cm^−2·hr^−1
same,reduction in IFNγ-induced absorption rate,"rat RPE; PKA inhibitor alone injected into subretinal space, FIG. 23D",~40%
same,effect on IFNγ induced decrease in detachment volume,rat RPE; pre-injection of 50 μM PKA inhibitor alone,partially blocked
IFNα,side effects reported from topical administration,[2],follicular conjunctivis and conjunctival injection
same,effect of type I IFN on hfRPE proliferation,hfRPE cells [1]; data not shown,no effect
IL-1β: inflammatory cytokine obtained from Peprotech; ICM component,effect on hfCHC (human fetal choroidal) cell proliferation,hfCHC cells,significantly stimulated
same,effect on hfRPE proliferation (BrdU incorporation),hfRPE cells [1],no significant effect
same,effect on hfRPE cell migration,hfRPE cells [3],no significant effect
JAK inhibitor I,effect on the IFNγ effect on hfRPE proliferation,hfRPE cells [1],block
same,effect on base level of fluid transport (JV),hfRPE monolayers; JAK inhibitor I 5 μM alone,no significant effect
same,effect on IFNγ increase in JV,"hfRPE monolayers; JAK inhibitor I 5 μM, 0.5-1 hours prior to IFNγ",significantly blocked
TNFα,effect on hfCHC (human fetal choroidal) cell proliferation,hfCHC cells,significantly stimulated
same,effect on hfRPE proliferation (BrdU incorporation),hfRPE cells [1],weak stimulatory effect
same,concentration at which the stimulatory effect reached statistical significance,hfRPE cells [1]; P <0.05,80 ng/mL
same,effect on hfRPE cell migration,hfRPE cells [3],no significant effect
B1,decrease in (central) macular thickness versus baseline,[4],25%
